Measurements reported in PubChem BioAssay AID206 (DTP/NCI, 2004).
Where “and” joins values, the source holds several entries; their conditions need not be identical. Equal values may be shown once. Records with an inconclusive call do not appear.

Tested on: nude mice, HT29 intrarenal xenograft, tumor weight T/C
Experiment: NCI In Vivo Anticancer Drug Screen. Data for tumor model HT29;CX-1 Human Adenocarcinoma (MER+) (intrarenal inoculation) in NU/NU Swiss (nude) mice
Details: endpoint: mean tumor weight change, higher = larger tumour
Outline: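 Compounds were given to mice carrying transplantable tumors; a vehicle-dosed group served as control. The endpoint measured in each group was compared as a T/C quotient.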

[1] = dose: 50.0 mg/kg/injection, schedule: Q04DX004 (sc), vehicle: Klucel (hydroxypropylcellulose) (HPC)
[2] = dose: 200.0 mg/kg/injection, schedule: Q04DX004 (sc), vehicle: Klucel (hydroxypropylcellulose) (HPC)
[3] = dose: 400.0 mg/kg/injection, schedule: Q04DX004 (sc), vehicle: Klucel (hydroxypropylcellulose) (HPC)
[4] = dose: 300.0 mg/kg/injection, schedule: Q04DX004 (sc), vehicle: saline with Tween-80
[5] = dose: 600.0 mg/kg/injection, schedule: Q04DX004 (sc), vehicle: saline with Tween-80
[6] = dose: 25.0 mg/kg/injection, schedule: Q01DX010 (sc), vehicle: suspension in saline
[7] = dose: 12.0 mg/kg/injection, schedule: Q04DX004 (sc), vehicle: Klucel (hydroxypropylcellulose) (HPC)
[8] = dose: 75.0 mg/kg/injection, schedule: Q04DX004 (sc), vehicle: saline with Tween-80
[9] = dose: 150.0 mg/kg/injection, schedule: Q04DX004 (sc), vehicle: saline with Tween-80
[10] = dose: 100.0 mg/kg/injection, schedule: Q04DX004 (sc), vehicle: Klucel (hydroxypropylcellulose) (HPC)

Cc1c(N)nc(C(CC(N)=O)NCC(N)C(N)=O)nc1C(=O)NC(C(=O)NC(C)C(O)CC(=O)NC(C(=O)NC(OC1OC(C)C(N)C(O)C1O)C(O)c1nc(-c2nc(C(=O)NCCCC(N)CC(=O)NCCCNCCCCN)cs2)cs1)C(C)O)C(OC1OC(CO)C(O)C(O)C1OC1OC(CO)C(O)C(OC(N)=O)C1O)c1cnc[nH]1 (centres undefined)
T/C (dose: 8.0 mg/kg/injection, schedule: Q04DX004 (sc), vehicle: saline): 17 % of control
T/C (dose: 16.0 mg/kg/injection, schedule: Q04DX004 (sc), vehicle: saline): 21 % of control

C1OCN2CSCC12 (centres undefined)
T/C (dose: 100.0 mg/kg/injection, schedule: Q04DX004 (sc), vehicle: saline with Tween-80): 39 % of control
T/C (dose: 200.0 mg/kg/injection, schedule: Q04DX004 (sc), vehicle: saline with Tween-80): 80 % of control
T/C (dose: 400.0 mg/kg/injection, schedule: Q04DX004 (sc), vehicle: saline with Tween-80): 46 % of control

COc1ccc2c(c1)CCC(c1ccccc1)=C2c1ccc(OCCN2CCCC2)cc1
T/C [1]: 87 % of control
T/C [2]: 108 % of control
T/C [3]: 52 % of control

COc1cc(Cl)ccc1C
T/C [4]: 64 % of control
T/C [5]: 90 % of control
T/C (dose: 1200.0 mg/kg/injection, schedule: Q04DX004 (sc), vehicle: saline with Tween-80): 76 % of control
T/C (dose: 2400.0 mg/kg/injection, schedule: Q04DX004 (sc), vehicle: saline with Tween-80): 84 % of control

N#CN=[N+]([O-])c1ccc(C(=O)O)cc1
T/C (dose: 45.0 mg/kg/injection, schedule: Q04DX004 (sc), vehicle: Klucel (hydroxypropylcellulose) (HPC)): 60 % of control

CC[N](CC)[Ge]([CH2]C)[CH2]C.CC[N](CC)[Ge]([CH2]C)[CH2]C
T/C (dose: 12.5 mg/kg/injection, schedule: Q01DX010 (sc), vehicle: suspension in saline): 226 % of control
T/C [6]: 158 % of control

Cc1c2ccc3ccccc3c2c[n+]2ccccc12
T/C (dose: 3.75 mg/kg/injection, schedule: Q04DX004 (sc), vehicle: Klucel (hydroxypropylcellulose) (HPC)): 84 % of control
T/C (dose: 7.5 mg/kg/injection, schedule: Q04DX004 (sc), vehicle: Klucel (hydroxypropylcellulose) (HPC)): 66 % of control
T/C (dose: 15.0 mg/kg/injection, schedule: Q04DX004 (sc), vehicle: Klucel (hydroxypropylcellulose) (HPC)): 50 % of control
T/C (dose: 30.0 mg/kg/injection, schedule: Q04DX004 (sc), vehicle: Klucel (hydroxypropylcellulose) (HPC)): 41 % of control

O=C(O)CC(=O)O.[NH-]CC[NH-].[Pt+2]
T/C (dose: 25.0 mg/kg/injection, schedule: Q01DX010 (sc), vehicle: dextrose): 29 % of control
T/C (dose: 50.0 mg/kg/injection, schedule: Q01DX010 (sc), vehicle: dextrose): 41 % of control

Nc1n[nH]c(N)n1
T/C (dose: 200.0 mg/kg/injection, schedule: Q01DX010 (sc), vehicle: saline): 295 % of control
T/C (dose: 400.0 mg/kg/injection, schedule: Q01DX010 (sc), vehicle: saline): 157 % of control
T/C (dose: 800.0 mg/kg/injection, schedule: Q01DX010 (sc), vehicle: saline): 215 % of control

CCCCCCCCNc1cc2c3c(c1)CCCN3CCC2
T/C (dose: 3.0 mg/kg/injection, schedule: Q04DX004 (sc), vehicle: Klucel (hydroxypropylcellulose) (HPC)): 69 % of control
T/C (dose: 6.0 mg/kg/injection, schedule: Q04DX004 (sc), vehicle: Klucel (hydroxypropylcellulose) (HPC)): 103 % of control
T/C [7]: 73 % of control

CNC(=O)ON(C(C)=O)C(=O)NC
T/C (dose: 25.0 mg/kg/injection, schedule: Q01DX010 (sc), vehicle: saline): 75 % of control
T/C (dose: 50.0 mg/kg/injection, schedule: Q01DX010 (sc), vehicle: saline): 109 % of control
T/C (dose: 50.0 mg/kg/injection, schedule: Q04DX004 (sc), vehicle: saline): 34 % of control
T/C (dose: 100.0 mg/kg/injection, schedule: Q01DX010 (sc), vehicle: saline): 13 % of control
T/C (dose: 100.0 mg/kg/injection, schedule: Q04DX004 (sc), vehicle: suspension in saline): 116 % of control
T/C (dose: 150.0 mg/kg/injection, schedule: Q04DX004 (sc), vehicle: suspension in saline): 114 % of control
T/C (dose: 200.0 mg/kg/injection, schedule: Q04DX004 (sc), vehicle: suspension in saline): 57 % of control
T/C (dose: 250.0 mg/kg/injection, schedule: Q04DX004 (sc), vehicle: suspension in saline): 18 % of control

Cc1cc(=O)n2c3c(c4c(cc13)c(CN(C)C)cc(=O)n4C)OC2
T/C [8]: 117 % of control
T/C [9]: 57 % of control

ClCc1ccc2ccccc2n1
T/C [8]: 82 % of control
T/C [9]: 88 % of control
T/C [4]: 86 % of control
T/C [5]: 53 % of control

Cc1ccc(NCC2(/N=C/c3ccccc3)OC(CO)C(O)C2O)cc1 (centres undefined)
T/C [2]: 81 % of control
T/C [3]: 70 % of control
T/C (dose: 800.0 mg/kg/injection, schedule: Q04DX004 (sc), vehicle: Klucel (hydroxypropylcellulose) (HPC)): 92 % of control
T/C (dose: 1600.0 mg/kg/injection, schedule: Q04DX004 (sc), vehicle: Klucel (hydroxypropylcellulose) (HPC)): 94 % of control

CC(=O)NC(CCc1ccc(Cl)c(Cl)c1)c1cccc(O)c(=O)c1 (centres undefined)
T/C [1]: 107 % of control
T/C [10]: 124 % of control
T/C [2]: 154 % of control

CC1CN=C(c2ccc(NC(=O)c3ccc(C(=O)Nc4ccc(C5=NCC(C)N5)cc4)cc3)cc2)N1 (centres undefined)
T/C (dose: 25.0 mg/kg/injection, schedule: Q01DX010 (sc), vehicle: Klucel (hydroxypropylcellulose) (HPC)): 65 % of control
T/C (dose: 50.0 mg/kg/injection, schedule: Q01DX010 (sc), vehicle: Klucel (hydroxypropylcellulose) (HPC)): 34 % of control
T/C (dose: 100.0 mg/kg/injection, schedule: Q01DX010 (sc), vehicle: Klucel (hydroxypropylcellulose) (HPC)): 37 % of control
T/C (dose: 200.0 mg/kg/injection, schedule: Q01DX010 (sc), vehicle: Klucel (hydroxypropylcellulose) (HPC)): 44 % of control

Cc1cc2c(c3oc(C4(C)OC4C4OC4C)cc(=O)c13)C(=O)c1c(O)c(C3CC(C)(N(C)C)C(O)C(C)O3)cc(C3CC(N(C)C)C(O)C(C)O3)c1C2=O (centres undefined)
T/C (dose: 0.13 mg/kg/injection, schedule: Q01DX010 (sc), vehicle: saline): 50 % of control

O=Cc1ccc([N+](=O)[O-])s1
T/C (dose: 25.0 mg/kg/injection, schedule: Q01DX010 (sc), vehicle: saline with Tween-80): 166 % of control
T/C (dose: 50.0 mg/kg/injection, schedule: Q01DX010 (sc), vehicle: saline with Tween-80): 176 % of control
T/C (dose: 100.0 mg/kg/injection, schedule: Q01DX010 (sc), vehicle: saline with Tween-80): 97 % of control

O=S(=O)(SC(S(=O)(=O)c1ccccc1)S(=O)(=O)c1ccccc1)c1ccccc1
T/C [10]: 246 % of control
T/C [2]: 203 % of control
T/C [3]: 246 % of control

COC1C(O)CC(OC2CC(Oc3cc4cc5c(c(O)c4c(O)c3C)C(=O)[C@@H](OC3CC(OC4CC(OC6CC(C)(O)C(OC(C)=O)C(C)O6)C(O)C(C)O4)C(O)C(C)O3)[C@H]([C@H](OC)C(=O)[C@@H](O)[C@@H](C)O)C5)OC(C)C2OC(C)=O)OC1C (some centres undefined)
T/C (dose: 0.19 mg/kg/injection, schedule: Q04DX004 (sc), vehicle: Klucel (hydroxypropylcellulose) (HPC)): 103 % of control
T/C (dose: 0.3 mg/kg/injection, schedule: Q04DX004 (sc), vehicle: Klucel (hydroxypropylcellulose) (HPC)): 39 % of control
T/C (dose: 0.38 mg/kg/injection, schedule: Q04DX004 (sc), vehicle: Klucel (hydroxypropylcellulose) (HPC)): 85 % of control
T/C (dose: 0.75 mg/kg/injection, schedule: Q04DX004 (sc), vehicle: Klucel (hydroxypropylcellulose) (HPC)): 89 % of control
T/C (dose: 1.2 mg/kg/injection, schedule: Q04DX004 (sc), vehicle: Klucel (hydroxypropylcellulose) (HPC)): 46 % of control
T/C (dose: 1.5 mg/kg/injection, schedule: Q04DX004 (sc), vehicle: Klucel (hydroxypropylcellulose) (HPC)): 21 % of control

CC1OC1C(=O)C1(O)C(C)C(O)C23OC2(C(O)c2c(O)cccc2C3=O)C1O (centres undefined)
T/C [7]: 172 % of control
T/C (dose: 24.0 mg/kg/injection, schedule: Q04DX004 (sc), vehicle: Klucel (hydroxypropylcellulose) (HPC)): 99 % of control
T/C (dose: 48.0 mg/kg/injection, schedule: Q04DX004 (sc), vehicle: Klucel (hydroxypropylcellulose) (HPC)): 92 % of control

c1ccc(CN2CCOC2)cc1
T/C [6]: 100 % of control
T/C (dose: 50.0 mg/kg/injection, schedule: Q01DX010 (sc), vehicle: suspension in saline): 106 % of control
T/C (dose: 100.0 mg/kg/injection, schedule: Q01DX010 (sc), vehicle: suspension in saline): 102 % of control

C/C=C(\C)c1cc(=O)c2c(C)cc3c(c2o1)C(=O)c1c(O)c(C2CC(C)(N(C)C)C(OC(C)=O)C(C)O2)cc(C2CC(N(C)C)C(O)C(C)O2)c1C3=O (centres undefined)
T/C (dose: 2.5 mg/kg/injection, schedule: Q04DX004 (sc), vehicle: saline): 102 % of control
T/C (dose: 5.0 mg/kg/injection, schedule: Q04DX004 (sc), vehicle: saline): 93 % of control
T/C (dose: 20.0 mg/kg/injection, schedule: Q04DX004 (sc), vehicle: saline): 37 % of control and 39 % of control
